Experimental data: patent EP0815072B1, “RADIOGRAPHIC CONTRASTING AGENT FOR COMPUTERISED TOMOGRAPHY AND UROGRAPHY” (SCHERING AKTIENGESELLSCHAFT, priority 1995, dated 1996)

Assays:
[1] = Butanol/water (buffer pH 7) partition coefficient; assay type: physicochemical; conditions: for Verteilungskoeffizient: Butanol/Wasser (Puffer pH 7), n = 4, Mittelwert ± Standardabweichung
From the text: Während Osmolalität, Viskosität und Jodgehalt den strukturisomeren Verbindungen lopamidol und lomeprol sehr ähnlich sind, zeigt sich eine überraschend erhöhte Hydrophilie der erfindungsgemäßen Verbindungen (Tab. 1). Tab.1:
Die Hydrophilie wird nicht wie bei der mit lohexol bezeichneten Verbindung durch die Einführung einer zusätzlichen Hydroxyalkylfunktion erreicht (die den Jodgehalt vermindert und Viskosität und Osmolalität erhöht), sondern ist die überraschende Folge einer neuen sterischen Anordnung der Substituenten an dem jodierten Aromaten.

[2] = Lethal dose after intravenous injection in rats; assay type: in vivo, Ratten; conditions: rat, in vivo, iv; all three doses pooled, i.v., Ratten; read-out: gestorbene Tiere, alle Dosierungen (%)
From the text: (§1) Die Hydrophilie wird als eine wichtige Voraussetzung für eine Verminderung der bei intravenöser Injektion beobachteten nicht osmolalitätsbedingten Nebenwirkungen angesehen (Dawson P., Clauß W.: Contrast Media in Practice, Springer Verlag Berlin Heidelberg 1993, Seite 11-12). Dazu gehören vor allem Übelkeit und Erbrechen, sowie allergieartige Reaktionen bis hin zum schweren anaphylaktoiden Schock. Andere Testergebnisse, die eine besonders gute Allgemeinverträglichkeit anzeigen, werden in biochemischen, biologischen und toxikologischen (Tab. 2) Untersuchungen gewonnen.

[3] = tested on: Ratten; experiment: Lethal dose after intravenous injection in rats; assay type: in vivo; conditions: i.v., Ratten (90-110 g), 300 mg Jod/ml, 2 ml/min
From the text: as §1

Compound | Verteilungskoeffizient [1] | mortality [2] [%] | Zahl der gestorbenen Tiere / Gesamtzahl der Tiere ([3]; Dosis 1: 12 g J/kg) | Zahl der gestorbenen Tiere / Gesamtzahl der Tiere ([3]; Dosis 2: 15 g J/kg) | Zahl der gestorbenen Tiere / Gesamtzahl der Tiere ([3]; Dosis 3: 18 g J/kg) | Hydrophilie ([1]; comparison with structurally comparable compounds, from the partition coefficient)
CC(=O)N(CC(O)CO)c1c(I)c(C(=O)NCC(O)CO)c(I)c(C(=O)NCC(O)CO)c1I (stereo not shown) [lohexol] | 0.082 ± 0.005 | – | – | – | – | –
COCC(=O)Nc1c(I)c(C(=O)NCC(O)CO)c(I)c(C(=O)N(C)CC(O)CO)c1I (stereo not shown) [lopromid] | 0.149 ± 0.011 | 67 | 1/4 | 3/4 | 4/4 | –
C[C@H](O)C(=O)Nc1c(I)c(C(=O)NC(CO)CO)c(I)c(C(=O)NC(CO)CO)c1I [lopamidol] | 0.089 ± 0.014 | 58 | 2/4 | 1/4 | 4/4 | –
CN(C(=O)CO)c1c(I)c(C(=O)NCC(O)CO)c(I)c(C(=O)NCC(O)CO)c1I (stereo not shown) [lomeprol] | 0.105 ± 0.006 | 89 | 2/3 | 3/3 | 3/3 | –
CN(CC(O)CO)C(=O)c1c(I)c(NC(=O)CO)c(I)c(C(=O)NCC(O)CO)c1I (stereo not shown) [Beispiel 1, 5-Hydroxyacetylamino-2,4,6-triiod-isophthalsäure-[(2,3-dihydroxy-N-methyl-propyl)-(2,3-dihydroxypropyl)]-diamid] | 0.069 ± 0.011 | 33 | 0/4 | 2/4 | 2/4 | am stärksten hydrophil
